This is an account of results in US20200131180A1, “POSITIVE ALLOSTERIC MODULATORS OF THE MUSCARINIC ACETYLCHOLINE RECEPTOR M1” (Vanderbilt University, priority 2018, published 2020).

This experiment has as its target T1, human mAChR M1 (Homo sapiens, UniProt P11229).
T1 sequence (P11229 1-460): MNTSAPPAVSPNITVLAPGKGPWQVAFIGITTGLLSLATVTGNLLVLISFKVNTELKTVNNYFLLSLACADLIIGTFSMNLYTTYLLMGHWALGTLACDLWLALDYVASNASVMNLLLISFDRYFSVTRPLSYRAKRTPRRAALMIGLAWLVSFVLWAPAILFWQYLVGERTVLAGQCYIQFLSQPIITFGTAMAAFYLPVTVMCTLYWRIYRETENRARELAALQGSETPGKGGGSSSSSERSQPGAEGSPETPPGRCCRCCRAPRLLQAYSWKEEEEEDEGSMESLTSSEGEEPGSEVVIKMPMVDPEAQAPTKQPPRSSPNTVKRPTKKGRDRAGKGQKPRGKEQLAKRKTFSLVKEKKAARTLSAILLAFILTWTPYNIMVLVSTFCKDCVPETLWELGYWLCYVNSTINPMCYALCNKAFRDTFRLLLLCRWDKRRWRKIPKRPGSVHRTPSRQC
Kind of experiment: mAChR M1 cell-based functional assay (calcium mobilization, PAM activity). Particulars: CHO-K1 cells expressing hM1, calcium flux (Fluo-4); for EC50: concentration-dependent increase in the EC20 acetylcholine response; for Emax: potentiation of EC20 acetylcholine response. An excerpt:
Chinese hamster ovary (CHO-K1) cells stably expressing rat (r)M1 were purchased from the American Type Culture Collection and cultured according to their indicated protocol. CHO cells stably expressing human (h)M2, hM3, and hM5 were described previously (Levey, et al., 1991); hM1 and hM4 cDNAs were purchased from Missouri S&T cDNA Resource; rM4 cDNA was provided by T. I. Bonner (National Institutes of Health, Bethesda, Md.). rM2 and rM3 were cloned from a rat brain cDNA library and sequence verified. hM1, rM2, rM3, hM4, and rM4 cDNAs were used to stably transfect CHO-K1 cells purchased from the American Type Culture Collection using Lipofectamine 2000. To make stable rM2, hM2, rM3, hM4, and rM4 cell lines for use in calcium mobilization assays, these cells also were stably transfected with a chimeric G-protein (Gqi5) (provided by B. R. Conklin, University of California, San Francisco) using Lipofectamine 2000. rM1, hM1, rM3, hM3, rM5, and hM5 cells were grown in Ham's F-12 medium containing 10% heat-inactivated fetal bovine serum (FBS), 20 mM HEPES, and 50 μg/mL G418 sulfate. rM2-Gqi5, hM2-Gqi5, and hM4-Gqi5 cells were grown in the same medium also containing 500 μg/mL Hygromycin B. Stable rM4-Gqi5 cells were grown in DMEM containing 10% heat-inactivated FBS, 20 mM HEPES, 400 μg/mL G418 sulfate, and 500 μg/mL Hygromycin B.
For high throughput measurement of agonist-evoked increases in intracellular calcium, CHO-K1 cells stably expressing muscarinic receptors were plated in growth medium lacking G418 and hygromycin at 15,000 cells/20 μL/well in Greiner 384-well black-walled, tissue culture (TC)-treated, clear-bottom plates (VWR). Cells were incubated overnight at 37° C. and 5% CO2. The next day, cells were washed using an ELX 405 (BioTek) with four washes (80 μL) of assay buffer then aspirated to 20 μL. Next, 20 μL of 16 μM Fluo-4/acetoxymethyl ester (Invitrogen, Carlsbad, Calif.) prepared as a 2.3 mM stock in DMSO and mixed in a 1:1 ratio with 10% (w/v) Pluronic F-127 and diluted in assay buffer was added to the wells and the cell plates were incubated for 50 min at 37° C. and 5% CO2. Dye was removed by washing with the ELX 405 (four 80 μL washes of assay buffer) then aspirated to 20 μL. Compound master plates were formatted in an 11 point CRC format (1:3 dilutions) in 100% DMSO with a starting concentration of 10 mM using the BRAVO liquid handler (Agilent). Test compound CRCs were then transferred to daughter plates (240 nL) using the Echo acoustic plate reformatter (Labcyte, Sunnyvale, Calif.) and then diluted into assay buffer (40 μL) to a 2× stock using a Thermo Fisher Combi (Thermo Fisher Scientific, Waltham, Mass.).
Calcium flux was measured using the Functional Drug Screening System (FDSS) 6000 (Hamamatsu Corporation, Tokyo, Japan) as an increase in the fluorescent static ratio. Compounds were applied to cells (20 μL, 2×) using the automated system of the FDSS 6000 at 4 s into the 300 s protocol and the data were collected at 1 Hz. At 144 s into the 300s protocol, 10 μL of an EC20 concentration of the muscarinic receptor agonist acetylcholine was added (5×), followed by the addition of 12 μL an EC80 concentration of acetylcholine at the 230 s time point (5×). Agonist activity was analyzed as a concentration-dependent increase in calcium mobilization upon compound addition. Emax values for agonist activity are expressed relative to the maximum for acetylcholine. Positive allosteric modulator activity was analyzed as a concentration-dependent increase in the EC20 acetylcholine response. Antagonist activity was analyzed as a concentration-dependent decrease in the EC80 acetylcholine response. Concentration-response curves were generated using a four-parameter logistical equation in XLfit curve fitting software (IDBS, Bridgewater, N.J.) for Excel (Microsoft, Redmond, Wash.) or Prism (GraphPad Software, Inc., San Diego, Calif.). […]

`O=C(N[C@H]1CCCC[C@@H]1O)c1cc(Cc2ccc(-n3cccn3)cc2)cc2ncnn12` [compound 20, N-[(1S,2S)-2-hydroxycyclohexyl]-7-[(4-pyrazol-1-ylphenyl)methyl]-[1,2,4]triazolo[1,5-a]pyridine-5-carboxamide]: the EC50 was 1190 nM and the maximal response (Emax) stood at 82%. In the case of `Cc1cn2cc(Cc3ccc(-c4ccn(C)n4)cc3)cc(C(=O)N[C@H]3CCOC[C@@H]3O)c2n1` [compound 21, N-[(3R,4S)-3-hydroxytetrahydropyran-4-yl]-2-methyl-6-[[4-(1-methylpyrazol-3-yl)phenyl]methyl]imidazo[1,2-a]pyridine-8-carboxamide], the 50% effective concentration (EC50) was found to be 2240 nM and the Emax turned out to be 43%. In the case of `O=C(N[C@H]1CCCC[C@@H]1O)c1cc(Cc2ccc(-n3cccn3)cc2)cn2ccnc12` [compound 22, N-[(1S,2S)-2-hydroxycyclohexyl]-6-[(4-pyrazol-1-ylphenyl)methyl]imidazo[1,2-a]pyridine-8-carboxamide], the EC50 stood at 610 nM and the Emax turned out to be 84%. Regarding `O=C(N[C@H]1CCOC[C@@H]1O)c1cc(Cc2ccc(-n3cccn3)cc2)cn2ccnc12` [compound 23, N-[(3R,4S)-3-hydroxytetrahydropyran-4-yl]-6-[(4-pyrazol-1-ylphenyl)methyl]imidazo[1,2-a]pyridine-8-carboxamide], the 50% effective concentration (EC50) is 341 nM and the Emax worked out at 82%. In the case of `O=C(N[C@H]1CCC[C@@H]1O)c1cc(Cc2ccc(-n3cccn3)cc2)cn2ccnc12` [compound 24, N-[(1S,2S)-2-hydroxycyclopentyl]-6-[(4-pyrazol-1-ylphenyl)methyl]imidazo[1,2-a]pyridine-8-carboxamide], the concentration for a half-maximal effect (EC50) turned out to be 2140 nM and the maximum response (Emax) is 76%. On to `Cn1ccc(-c2ccc(Cc3cc(C(=O)N[C@H]4CCCC[C@@H]4O)c4nccn4c3)cn2)n1` [compound 25, N-[(1S,2S)-2-hydroxycyclohexyl]-6-[[6-(1-methylpyrazol-3-yl)-3-pyridyl]methyl]imidazo[1,2-a]pyridine-8-carboxamide], for which the EC50 was determined as 904 nM and the Emax is 83%. For `Cn1ccc(-c2ccc(Cc3cc(C(=O)N[C@H]4CCOC[C@@H]4O)c4nccn4c3)cn2)n1` [compound 26, N-[(3R,4S)-3-hydroxytetrahydropyran-4-yl]-6-[[6-(1-methylpyrazol-3-yl)-3-pyridyl]methyl]imidazo[1,2-a]pyridine-8-carboxamide], the EC50 was found to be 4350 nM and the Emax stood at 79%.

As for `Cn1ccc(-c2ccc(Cc3cc(C(=O)N[C@H]4CCOC[C@@H]4O)c4ncnn4c3)cn2)n1` [compound 27, N-[(3R,4S)-3-hydroxytetrahydropyran-4-yl]-6-[[6-(1-methylpyrazol-3-yl)-3-pyridyl]methyl]-[1,2,4]triazolo[1,5-a]pyridine-8-carboxamide], the EC50 is 7980 nM and the Emax is 78%. Take `Cn1cc(-c2ccc(Cc3cc(C(=O)N[C@H]4CCOC[C@@H]4O)c4ncnn4c3)cc2)cn1` [compound 28, N-[(3R,4S)-3-hydroxytetrahydropyran-4-yl]-6-[[4-(1-methylpyrazol-4-yl)phenyl]methyl]-[1,2,4]triazolo[1,5-a]pyridine-8-carboxamide]: the EC50 was determined as 1120 nM and the Emax amounted to 85%.

Turning to `Cc1nc(-c2ccc(Cc3cc(C(=O)N[C@H]4CCOC[C@@H]4O)c4ncnn4c3)cc2)co1` [compound 29, N-[(3R,4S)-3-hydroxytetrahydropyran-4-yl]-6-[[4-(2-methyloxazol-4-yl)phenyl]methyl]-[1,2,4]triazolo[1,5-a]pyridine-8-carboxamide], the EC50 was 2550 nM and the Emax was determined as 82%. Consider `O=C(N[C@H]1CCOC[C@@H]1O)c1cc(Cc2ccc(-n3cccn3)cc2)cn2ncnc12` [compound 30, N-[(3R,4S)-3-hydroxytetrahydropyran-4-yl]-6-[(4-pyrazol-1-ylphenyl)methyl]-[1,2,4]triazolo[1,5-a]pyridine-8-carboxamide], for which the EC50 was determined as 1270 nM and the Emax came out at 85%. For `Cn1cc(-c2ccc(Cc3cc(C(=O)N[C@H]4CCCC[C@@H]4O)c4ncnn4c3)cc2)cn1` [compound 31, N-[(1S,2S)-2-hydroxycyclohexyl]-6-[[4-(1-methylpyrazol-4-yl)phenyl]methyl]-[1,2,4]triazolo[1,5-a]pyridine-8-carboxamide], the EC50 is 739 nM and the maximum response (Emax) came out at 89%. Consider `Cc1nc(-c2ccc(Cc3cc(C(=O)N[C@H]4CCCC[C@@H]4O)c4ncnn4c3)cc2)co1` [compound 32, N-[(1S,2S)-2-hydroxycyclohexyl]-6-[[4-(2-methyloxazol-4-yl)phenyl]methyl]-[1,2,4]triazolo[1,5-a]pyridine-8-carboxamide], for which the half-maximal effective concentration (EC50) is 1430 nM and the Emax worked out at 87%. With `O=C(N[C@H]1CCCC[C@@H]1O)c1cc(Cc2ccc(-n3cccn3)cc2)cn2ncnc12` [compound 33, N-[(1S,2S)-2-hydroxycyclohexyl]-6-[(4-pyrazol-1-ylphenyl)methyl]-[1,2,4]triazolo[1,5-a]pyridine-8-carboxamide], the EC50 is 604 nM and the maximal effect (Emax) was 87%. `Cn1cc(-c2ccc(Cc3cc(C(=O)NC4CCOCC4)c4ncnn4c3)cc2)cn1` [compound 34, 6-[[4-(1-methylpyrazol-4-yl)phenyl]methyl]-N-tetrahydropyran-4-yl-[1,2,4]triazolo[1,5-a]pyridine-8-carboxamide]: the concentration giving a half-maximal response (EC50) stood at 3690 nM and the Emax amounted to 35%. Taken in the same sequence, the figures for `Cc1nc(-c2ccc(Cc3cc(C(=O)NC4CCOCC4)c4ncnn4c3)cc2)co1` [compound 35, 6-[[4-(2-methyloxazol-4-yl)phenyl]methyl]-N-tetrahydropyran-4-yl-[1,2,4]triazolo[1,5-a]pyridine-8-carboxamide] were 9360 nM and 31%.

Regarding `O=C(NC1CCOCC1)c1cc(Cc2ccc(-n3cccn3)cc2)cn2ncnc12` [compound 36, 6-[(4-pyrazol-1-ylphenyl)methyl]-N-tetrahydropyran-4-yl-[1,2,4]triazolo[1,5-a]pyridine-8-carboxamide], the Emax was 47%. `Cn1ccc(-c2ccc(Cc3cc(C(=O)N[C@H]4CCCC[C@@H]4O)c4ncnn4c3)cn2)n1` [compound 37, N-[(1S,2S)-2-hydroxycyclohexyl]-6-[[6-(1-methylpyrazol-3-yl)-3-pyridyl]methyl]-[1,2,4]triazolo[1,5-a]pyridine-8-carboxamide]: the EC50 stood at 3540 nM and the Emax came out at 83%.
